Test results as given in patent EP4789680A1, “NOVEL PACE4 INHIBITOR AND USE THEREOF IN ANTI-OSTEOARTHRITIS” (Inflamax Pharmaceuticals Limited, priority 2023, dated 2025).
One block for each molecule: values may come before it. Where a SMILES comes first, the peptide text is derived from it. Where no end group is shown, it is not given here. [ ]: non-standard residue; d: D form. ξ: configuration not given here. Abu(1-amidino-4-piperidyl) = N=C(N)N1CCC(CC[C@H](N)C(=O)O)CC1; Phe(4-guanidino) = N=C(N)Nc1ccc(C[C@H](N)C(=O)O)cc1; Phe(4-CF3) = N[C@@H](Cc1ccc(C(F)(F)F)cc1)C(=O)O; dThr(3ξ) = CC(O)[C@@H](N)C(=O)O

Key:
[1] = system: traumatic osteoarthritis model; assay: MMT surgery traumatic osteoarthritis model, test for therapeutic efficacy; assay type: in vivo, Sprague Dawley (SD) rats; details: compared to the OA group; intra-articular injection on day 3 and day 10 after MMT surgery; sacrificed day 14
Protocol: In this example, a traumatic osteoarthritis model was established by performing a medial meniscus tear (MMT) surgery to verify the therapeutic effect of the PACE4 inhibitory peptides on OA. In the test for therapeutic efficacy, the injections were administered on day 3 and day 10 after the surgical modeling (i.e., a total of 2 administrations).
Specifically, in the test for therapeutic efficacy, 24 Sprague Dawley (SD) rats were divided into 3 groups (including a control group, an OA modeling group (surgery group), and an OA modeling + therapeutic administration group (surgery group + drug intervention)), with 8 rats per group. For the OA modeling + therapeutic administration group, intra-articular injections were administered on day 3 and day 10 after MMT surgery. Rats in each group were sacrificed on day 14 after modeling, and joint tissues were collected. Each PACE4 inhibitory peptide was tested individually to determine the therapeutic effect of each PACE4 inhibitory peptide. Among them, the polypeptide Ac-R-F-K-R-NH2 (control molecule) was selected as a control example.
Cartilage tissue was collected from each group as samples. The collected cartilage tissue samples were decalcified according to conventional procedures in the art, then embedded in paraffin, and sectioned at a thickness of 7 µm. Safranin O-fast green staining was performed, and the cartilage degeneration was assessed using OARSI scoring. In addition, TRAP staining was performed to determine the subchondral bone resorption in rats before and after MMT surgery and during treatment with the PACE4 inhibitory peptide.

PACE4 [2] = target: T1, PACE4 (Homo sapiens, UniProt P29122); assay: PACE4 enzyme inhibition experiment (fluorogenic substrate, competitive inhibition); assay type: biochemical; details: substrate pyroGlu-Arg-Val-Lys-Arg-methyl-coumaryl-7-amide 100 µM, pH 6.5, 37°C, 60 min
T1 sequence (P29122 150-969): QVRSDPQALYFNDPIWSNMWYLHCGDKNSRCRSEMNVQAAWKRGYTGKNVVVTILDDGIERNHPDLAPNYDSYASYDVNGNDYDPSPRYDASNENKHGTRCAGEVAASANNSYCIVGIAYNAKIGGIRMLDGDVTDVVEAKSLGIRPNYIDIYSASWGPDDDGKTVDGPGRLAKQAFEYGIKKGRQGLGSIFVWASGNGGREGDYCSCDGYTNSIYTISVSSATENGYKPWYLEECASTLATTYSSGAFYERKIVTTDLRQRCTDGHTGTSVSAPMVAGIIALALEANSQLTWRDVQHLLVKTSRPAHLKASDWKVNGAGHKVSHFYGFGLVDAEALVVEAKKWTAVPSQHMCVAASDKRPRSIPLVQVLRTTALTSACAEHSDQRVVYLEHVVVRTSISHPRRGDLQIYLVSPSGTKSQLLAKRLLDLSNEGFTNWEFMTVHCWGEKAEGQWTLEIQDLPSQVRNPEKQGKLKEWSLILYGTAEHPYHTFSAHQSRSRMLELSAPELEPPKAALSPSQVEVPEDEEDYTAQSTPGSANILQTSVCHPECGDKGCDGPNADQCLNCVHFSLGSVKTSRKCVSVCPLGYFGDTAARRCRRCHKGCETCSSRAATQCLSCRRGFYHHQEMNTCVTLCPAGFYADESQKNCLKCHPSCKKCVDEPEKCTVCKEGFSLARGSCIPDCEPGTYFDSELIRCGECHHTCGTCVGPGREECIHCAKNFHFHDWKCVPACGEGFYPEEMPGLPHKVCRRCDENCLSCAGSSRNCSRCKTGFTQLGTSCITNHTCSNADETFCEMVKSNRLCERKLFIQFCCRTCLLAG
Protocol: The PACE4 inhibitory peptides obtained from the above example were subjected to in vitro assay of PACE4 inhibitory effect. The specific steps were as follows: the PACE4 enzyme inhibition experiment was performed in a solution containing 20 mM Bis-Tis at pH 6.5, 1 mM CaCl2, and 1.8 mg/mL BSA. All assays were performed using pyroGlu-Arg-Val-Lys-Arg-methyl-coumaryl-7-amide (Bachem, CA) (100 µM) as the substrate. The assay was conducted at 37°C for 60 min. A Gemini EM 96-well fluorescence spectrometer (Molecular Devices, CA) (Ex: 370 nm, Em: 460 nm) was used. The PACE4 inhibitory peptide involved in the present patent was added to the test solution at different concentrations for competitive inhibition assay to determine the IC50 value of the peptide.

PACE4 [3] = target: T2, PACE4 (UniProt P29122 150-969, limits assumed); assay: cell-based or functional assay
T2 sequence (looked up): T1 sequence (P29122 150-969)

Molecule: CC(=O)N[C@H](CCCNC(=N)N)C(=O)N[C@@H](CCCNC(=N)N)C(=O)N[C@@H](Cc1ccc(C(F)(F)F)cc1)C(=O)N[C@@H](CCCCN)C(=O)N[C@@H](CCCNC(=N)N)C(=O)N[C@@H](C(N)=O)[C@H](C)O [Ac-dR-R-F(4-CF3)-K-R-dT-NH2] (Ac-[dR]R[Phe(4-CF3)]KR[dT]-NH2)
OARSI score reduced, therapeutic test [1]: 34.6%

IC50 (PACE4 [2]): 90 nM
Molecule: CC(=O)N[C@@H](CCCNC(=N)N)C(=O)N[C@@H](CCCNC(=N)N)C(=O)N[C@@H](Cc1ccc(C(F)(F)F)cc1)C(=O)N[C@@H](CCCCN)C(=O)N[C@@H](CCCNC(=N)N)C(=O)N[C@@H](C(N)=O)[C@H](C)O [Ac-R-R-F(4-CF3)-K-R-dT-NH2] (Ac-RR[Phe(4-CF3)]KR[dT]-NH2)

Molecule: CC(=O)N[C@H](CCCNC(=N)N)C(=O)N[C@@H](CCCNC(=N)N)C(=O)N[C@@H](Cc1ccccc1)C(=O)N[C@@H](CCCCN)C(=O)N[C@@H](CCCNC(=N)N)C(=O)N[C@@H](C(N)=O)[C@H](C)O [Ac-dR-R-F-K-R-dT-NH2] (Ac-[dR]RFKR[dT]-NH2)
OARSI score reduced, therapeutic test [1]: 28%

IC50 (PACE4 [2]): 20 nM
Molecule: C[C@H](O)[C@@H](NC(=O)[C@H](CCCNC(=N)N)NC(=O)[C@H](CCCCN)NC(=O)[C@H](Cc1ccc(C(F)(F)F)cc1)NC(=O)[C@H](CCCNC(=N)N)NC(=O)[C@@H](CCCNC(=N)N)NC(=O)[C@@H]1CCCN1)C(N)=O [P-dR-R-F(4-CF3)-K-R-dT-NH2] (H-P[dR]R[Phe(4-CF3)]KR[dT]-NH2)

IC50 (PACE4 [2]): 90 nM
Molecule: CC(=O)N[C@@H](CCCNC(=N)N)C(=O)N[C@@H](CCCNC(=N)N)C(=O)N[C@@H](CCC1CCN(C(=N)N)CC1)C(=O)N[C@@H](CCCCN)C(=O)N[C@@H](CCCNC(=N)N)C(=O)N[C@@H](C(N)=O)C(C)O (some centres unmarked) [Ac-R-R-A(4-Pip)-K-R-dT-NH2] (Ac-RR[Abu(1-amidino-4-piperidyl)]KR[dThr(3ξ)]-NH2)

Molecule: CC(=O)N[C@H](CCCNC(=N)N)C(=O)N[C@@H](CCCNC(=N)N)C(=O)N[C@@H](Cc1ccc(NC(=N)N)cc1)C(=O)N[C@@H](CCCCN)C(=O)N[C@@H](CCCNC(=N)N)C(=O)N[C@@H](C(N)=O)[C@H](C)O [Ac-dR-R-F(4-Guan)-K-R-dT-NH2] (Ac-[dR]R[Phe(4-guanidino)]KR[dT]-NH2)
OARSI score reduced, therapeutic test [1]: 38.5%

IC50 (PACE4 [2]): 20 nM
Molecule: C[C@H](O)[C@@H](NC(=O)[C@H](CCCNC(=N)N)NC(=O)[C@H](CCCCN)NC(=O)[C@H](Cc1ccc(C(F)(F)F)cc1)NC(=O)[C@H](CCCNC(=N)N)NC(=O)[C@@H](CCCNC(=N)N)NC(=O)[C@H]1CCCN1)C(N)=O [dP-dR-RF(4-CF3)-K-R-dT-NH2, dP-dR-R-F(4-CF3)-K-R-dT-NH2] (H-[dP][dR]R[Phe(4-CF3)]KR[dT]-NH2)

IC50 (PACE4 [2]): 70 nM
Molecule: C[C@H](O)[C@@H](NC(=O)[C@H](CCCNC(=N)N)NC(=O)[C@H](CCCCN)NC(=O)[C@H](Cc1ccccc1)NC(=O)[C@H](CCCNC(=N)N)NC(=O)[C@@H](CCCNC(=N)N)NC(=O)[C@H]1CCCN1)C(N)=O [dP-dR-R-F-K-R-dT-NH2] (H-[dP][dR]RFKR[dT]-NH2)

IC50 (PACE4 [2]): 20 nM
Molecule: C[C@H](O)[C@@H](NC(=O)[C@H](CCCNC(=N)N)NC(=O)[C@H](CCCCN)NC(=O)[C@H](Cc1ccccc1)NC(=O)[C@H](CCCNC(=N)N)NC(=O)[C@@H](CCCNC(=N)N)NC(=O)[C@@H]1CCCN1)C(N)=O [P-dR-R-F-K-R-dT-NH2] (H-P[dR]RFKR[dT]-NH2)

IC50 (µM), PACE4 enzyme inhibition, fluorogenic substrate pyroGlu-Arg-Val-Lys-Arg-methyl-coumaryl-7-amide (PACE4 [3]): 0.46 µM
B1: Ac-R-R-F-K-R-dT-NH2 (peptide)
peptide: Ac-RRFKR[dT]-NH2
SMILES: CC(=O)N[C@@H](CCCNC(=N)N)C(=O)N[C@@H](CCCNC(=N)N)C(=O)N[C@@H](Cc1ccccc1)C(=O)N[C@@H](CCCCN)C(=O)N[C@@H](CCCNC(=N)N)C(=O)N[C@@H](C(N)=O)[C@H](C)O

IC50 (µM), PACE4 enzyme inhibition, fluorogenic substrate pyroGlu-Arg-Val-Lys-Arg-methyl-coumaryl-7-amide (PACE4 [3]): 0.74 µM
B2: Ac-R-F(4-CF3)-K-R-T-NH2 (peptide)
peptide: Ac-R[Phe(4-CF3)]KRT-NH2
SMILES: CC(=O)N[C@@H](CCCNC(=N)N)C(=O)N[C@@H](Cc1ccc(C(F)(F)F)cc1)C(=O)N[C@@H](CCCCN)C(=O)N[C@@H](CCCNC(=N)N)C(=O)N[C@H](C(N)=O)[C@@H](C)O

IC50 (µM), PACE4 enzyme inhibition, fluorogenic substrate pyroGlu-Arg-Val-Lys-Arg-methyl-coumaryl-7-amide (PACE4 [3]): 0.034 µM
B3: dP-dR-R-F(4-Guan)-K-R-dT-NH2 (peptide)
peptide: [dP][dR]R[Phe(4-guanidino)]KR[dT]-NH2
modifications: N-terminus assumed
SMILES: C[C@H](O)[C@@H](NC(=O)[C@H](CCCNC(=N)N)NC(=O)[C@H](CCCCN)NC(=O)[C@H](Cc1ccc(NC(=N)N)cc1)NC(=O)[C@H](CCCNC(=N)N)NC(=O)[C@@H](CCCNC(=N)N)NC(=O)[C@H]1CCCN1)C(N)=O

IC50 (µM), PACE4 enzyme inhibition, fluorogenic substrate pyroGlu-Arg-Val-Lys-Arg-methyl-coumaryl-7-amide (PACE4 [3]): 0.02 µM
B4: P-dR-R-F-K-R-dT-NH2 (peptide)
peptide: P[dR]RFKR[dT]-NH2
modifications: N-terminus assumed
SMILES: C[C@H](O)[C@@H](NC(=O)[C@H](CCCNC(=N)N)NC(=O)[C@H](CCCCN)NC(=O)[C@H](Cc1ccccc1)NC(=O)[C@H](CCCNC(=N)N)NC(=O)[C@@H](CCCNC(=N)N)NC(=O)[C@@H]1CCCN1)C(N)=O

IC50 (µM), PACE4 enzyme inhibition, fluorogenic substrate pyroGlu-Arg-Val-Lys-Arg-methyl-coumaryl-7-amide (PACE4 [3]): 5 µM
B5: Ac-R-F-K-R-dT-NH2 (peptide)
peptide: Ac-RFKR[dT]-NH2
SMILES: CC(=O)N[C@@H](CCCNC(=N)N)C(=O)N[C@@H](Cc1ccccc1)C(=O)N[C@@H](CCCCN)C(=O)N[C@@H](CCCNC(=N)N)C(=O)N[C@@H](C(N)=O)[C@H](C)O

IC50 (µM), PACE4 enzyme inhibition, fluorogenic substrate pyroGlu-Arg-Val-Lys-Arg-methyl-coumaryl-7-amide (PACE4 [3]): 0.07 µM
B6: dP-dR-R-F-K-R-dT-NH2 (peptide)
peptide: [dP][dR]RFKR[dT]-NH2
modifications: N-terminus assumed
SMILES: C[C@H](O)[C@@H](NC(=O)[C@H](CCCNC(=N)N)NC(=O)[C@H](CCCCN)NC(=O)[C@H](Cc1ccccc1)NC(=O)[C@H](CCCNC(=N)N)NC(=O)[C@@H](CCCNC(=N)N)NC(=O)[C@H]1CCCN1)C(N)=O

IC50 (µM), PACE4 enzyme inhibition, fluorogenic substrate pyroGlu-Arg-Val-Lys-Arg-methyl-coumaryl-7-amide (PACE4 [3]): 0.35 µM
B7: Ac-R-F(4-CF3)-K-R-dT-NH2 (peptide)
peptide: Ac-R[Phe(4-CF3)]KR[dT]-NH2
SMILES: CC(=O)N[C@@H](CCCNC(=N)N)C(=O)N[C@@H](Cc1ccc(C(F)(F)F)cc1)C(=O)N[C@@H](CCCCN)C(=O)N[C@@H](CCCNC(=N)N)C(=O)N[C@@H](C(N)=O)[C@H](C)O

IC50 (µM), PACE4 enzyme inhibition, fluorogenic substrate pyroGlu-Arg-Val-Lys-Arg-methyl-coumaryl-7-amide (PACE4 [3]): 0.19 µM
B8: Ac-dR-R-F-K-R-dT-NH2 (peptide)
peptide: Ac-[dR]RFKR[dT]-NH2
SMILES: CC(=O)N[C@H](CCCNC(=N)N)C(=O)N[C@@H](CCCNC(=N)N)C(=O)N[C@@H](Cc1ccccc1)C(=O)N[C@@H](CCCCN)C(=O)N[C@@H](CCCNC(=N)N)C(=O)N[C@@H](C(N)=O)[C@H](C)O
